According to patent publication US8859529B2, “Compounds for the treatment of inflammatory disorders” (Merck Sharp & Dohme Corp., priority 2008, dated 2014):
pIC50: −log10 of the molar value.

Key:
[1] = Area under the curve determinations of plasma levels in rats (rrAUC); assay type: in vivo; conditions: rapid rat AUC of the drug (parent) in plasma; oral 10 mg/kg, fasted rats, blood 0.5-6 h post-dosing
Protocol: To gain insight into the pharmacokinetic properties of the compounds of formula (I), plasma levels of the compounds in rats were determined according to the protocol described in Korfmacher, W. A,; Cox, K. A.; Ng, K. J.; Veals, J.; Hsieh, Y.; Wainhaus, S.; Broske, L; Prelusky, D.; Nomeir, A.; White, R. E. Rapid Commun. Mass Spectrorn, 2001, 15, 335. Briefly, rats, after an overnight fast, were dosed orally with the test compound at a dose of 10 mg/kg in a 5 mL/kg dose volume. Blood was collected at 0.5, 1, 2, 3, 4, and 6 h post-dosing. Mass spectrometry using high performance liquid chromatography was used to identify and measure the concentrations of the test compounds in the plasma at the various time points. The parent ion of each test compound was used to identify and quantitate the compounds in plasma.

[2] = test system: TNF-α production from human whole blood; experiment: Inhibition of TNF-α production from human whole blood (hWBA); assay type: cell-based; conditions: human whole blood diluted 1:1, 1 h pre-incubation, LPS, 3.5 h, TNF-α by ELISA; N/A = Not Active
Protocol: The compounds' ability to inhibit TACE activity can also be determined in human whole blood using the assay conditions described n Example 15 below.
Human whole blood was diluted 1:1 with serum free medium (RPMI, L-glutamine, Pen-Strep, HEPES) and incubated with a test compound in a final volume of 360 μl for 1 h at 37° C. Forty microliters of LPS (10 μg/mL) was then added. Supernatant was collected after 3.5 h incubation and the concentration of TNF-α was determined by ELISA (R&D Systems). The concentration of the test compound which inhibits 50% of the amount of TNF-α from the untreated control was determined.

Row | SMILES | PK (rrAUC) parent [1] [µM·h] | pIC50 [2]
1 | COc1ccc2c(c1)C(=O)N(C[C@@]1(c3cc4ncccc4o3)NC(=O)N(COC(=O)C(C)(C)C)C1=O)C2 [Compound 1] | 13.101 | 6.55
2 | COc1ccc2c(c1)C(=O)N(C[C@@]1(c3cc4cnccc4o3)NC(=O)N(COC(=O)C(C)(C)C)C1=O)C2 [Compound 2] | 13.539 | 6.56
3 | CCN1CCN(c2ccc3oc([C@]4(CN5Cc6ccc(OC)c(F)c6C5=O)NC(=O)N(COC(=O)C(C)(C)C)C4=O)cc3n2)CC1 [Compound 3] | 19.953 | 7.21
4 | COc1ccc2c(c1F)C(=O)N(C[C@@]1(c3cc4nc(N5CCN(C)CC5)ccc4o3)NC(=O)N(COC(=O)C(C)(C)C)C1=O)C2 [Compound 4] | 8.621 | 7.04
5 | COc1ccc2c(c1F)C(=O)N(C[C@@]1(c3cc4nc(N5CCNC(=O)C5)ccc4o3)NC(=O)N(COC(=O)C(C)(C)C)C1=O)C2 [Compound 5] | 0.121 | 6.98
6 | COc1ccc2c(c1F)C(=O)N(C[C@@]1(c3cc4nc(N5CCC5=O)ccc4o3)NC(=O)N(COC(=O)C(C)(C)C)C1=O)C2 [Compound 6] | 2.283 | 6.35
7 | COc1ccc2c(c1F)C(=O)N(C[C@@]1(c3cc4cc5c(c(F)c4o3)C(=O)NC5)NC(=O)N(COC(=O)C(C)(C)C)C1=O)C2 [Compound 7] | 1.898 | –
8 | COc1ccc2c(c1F)C(=O)N(C[C@@]1(c3cc4c5c(ccc4o3)CNC5=O)NC(=O)N(COC(=O)C(C)(C)C)C1=O)C2 [Compound 8] | 2.193 | –
9 | COc1ccc2c(c1)C(=O)N(C[C@@]1(c3cc4nc(N5C[C@@H](O)CC5=O)ccc4o3)NC(=O)N(COC(=O)C(C)(C)C)C1=O)C2 [Compound 23] | 60.895 | –
10 | COc1ccc2c(c1F)C(=O)N(C[C@@]1(c3cc4cc([C@@]5(C)NC(=O)NC5=O)c(F)cc4o3)NC(=O)N(COC(=O)C(C)(C)C)C1=O)C2 [Compound 30] | 0.335 | –
11 | COc1ccc2c(c1F)C(=O)N(C[C@@]1(c3cc4cc5c(cc4o3)C(=O)NCC5)NC(=O)N(COC(=O)C(C)(C)C)C1=O)C2 [Compound 32] | – | 6.87
12 | COc1ccc2c(c1)C(=O)N(C[C@@]1(c3cc4cnccc4o3)NC(=O)N(COC(=O)C3(C)CCCCC3)C1=O)C2 [Compound 35.2] | – | 7.45
13 | COc1ccc2c(c1F)C(=O)N(C[C@@]1(c3cc4nc(C(N)=O)ccc4o3)NC(=O)N(COC(=O)C(C)(C)C)C1=O)C2 [Compound 35] | – | 7.10
14 | CCCN1CCN(c2ccc3oc([C@]4(CN5Cc6ccc(OC)c(F)c6C5=O)NC(=O)N(COC(=O)C(C)(C)C)C4=O)cc3n2)CC1 [Compound 40] | – | 6.59
15 | COc1ccc2c(c1)C(=O)N(C[C@@]1(C#Cc3ccc(-c4ncccc4OC(=O)C(C)(C)C)cc3)NC(=O)N(COC(=O)C(C)(C)C)C1=O)C2 [Compound 42] | – | 6.10
16 | COc1ccc2c(c1)C(=O)N(C[C@@]1(c3cc4ncccc4o3)NC(=O)N(C)C1=O)C2 [Compound 45] | 0.947 | –
17 | CCN1C(=O)N[C@@](CN2Cc3ccc(OC)cc3C2=O)(c2cc3ncccc3o2)C1=O [Compound 46] | 0.868 | –
18 | COCCOCCOCCN1C(=O)N[C@@](CN2Cc3ccc(OC)cc3C2=O)(c2cc3ncccc3o2)C1=O [Compound 47] | 0.019 | –
19 | COc1ccc2c(c1)C(=O)N(C[C@@]1(c3cc4cnccc4o3)NC(=O)N(Cc3cccnc3)C1=O)C2 [Compound 48.1] | 0 | –
20 | COCCOCCOCCN1C(=O)N[C@@](CN2Cc3ccc(OC)cc3C2=O)(c2cc3cnccc3o2)C1=O [Compound 49] | 0.088 | –
21 | COc1ccc2c(c1)C(=O)N(C[C@@]1(c3cc4cnccc4o3)NC(=O)N(CCN3CCOCC3)C1=O)C2 [Compound 50] | 0 | –
22 | COCN1C(=O)N[C@@](CN2Cc3ccc(OC)cc3C2=O)(c2cc3cnccc3o2)C1=O [Compound 52] | 1.072 | –
23 | CCOCN1C(=O)N[C@@](CN2Cc3ccc(OC)cc3C2=O)(c2cc3cnccc3o2)C1=O [Compound 53] | 5.183 | –
24 | CCCCCCCCOCN1C(=O)N[C@@](CN2Cc3ccc(OC)cc3C2=O)(c2cc3cnccc3o2)C1=O [Compound 54] | 0.571 | –
25 | COCN1C(=O)N[C@@](CN2Cc3ccc(OC)c(F)c3C2=O)(c2cc3cc4c(c(F)c3o2)C(=O)NC4)C1=O [Compound 56] | 0 | –
26 | COc1ccc2c(c1F)C(=O)N(C[C@@]1(c3cc4cc5c(c(F)c4o3)C(=O)NC5)NC(=O)N(COCc3ccccc3)C1=O)C2 [Compound 57] | 2.244 | –

Row | SMILES | PK (rrAUC) parent [1] [µM·h] | pIC50 [2]
27 | CCOC(=O)CN1C(=O)N[C@@](CN2Cc3ccc(OC)cc3C2=O)(c2cc3cnccc3o2)C1=O [Compound 58.2] | 0 | –
28 | COCN1C(=O)N[C@@](CN2Cc3ccc(OC)cc3C2=O)(c2cc3ncccc3o2)C1=O [Compound 58] | 2.125 | –
29 | COc1ccc2c(c1)C(=O)N(C[C@@]1(c3cc4cnccc4o3)NC(=O)N(C(C)OC(=O)OC3COCOC3)C1=O)C2 (stereo partly shown) [Compound 60.1] | 0 | –
30 | CCOC(=O)N(C)CCOC(=O)OCN1C(=O)N[C@@](CN2Cc3ccc(OC)cc3C2=O)(c2cc3cnccc3o2)C1=O [Compound 63.5] | 0 | –
31 | CCOCCOC(=O)OCN1C(=O)N[C@@](CN2Cc3ccc(OC)cc3C2=O)(c2cc3cnccc3o2)C1=O [Compound 63.6] | – | 6.68
32 | COc1ccc2c(c1)C(=O)N(C[C@@]1(c3cc4cnccc4o3)NC(=O)N(COC(=O)OC(C)(C)C)C1=O)C2 [Compound 63] | 0 | –
33 | COc1ccc2c(c1)C(=O)N(C[C@@]1(c3cc4cnccc4o3)NC(=O)N(COC(=O)c3ccccc3)C1=O)C2 [Compound 66] | 1.861 | –
34 | COCCOCC(=O)OCN1C(=O)N[C@@](CN2Cc3ccc(OC)cc3C2=O)(c2cc3cnccc3o2)C1=O [Compound 67.2] | – | 6.50
35 | COc1ccc2c(c1)C(=O)N(C[C@@]1(c3cc4cnccc4o3)NC(=O)N(COC(=O)N(C)C)C1=O)C2 [Compound 69] | 13.539 | –
36 | COc1ccc2c(c1)C(=O)N(C[C@@]1(c3cc4cnccc4o3)NC(=O)N(C(C)OC(=O)N(C)C)C1=O)C2 (stereo partly shown) [Compound 70] | – | 6.11
37 | COc1ccc2c(c1)C(=O)N(C[C@@]1(c3cc4cnccc4o3)NC(=O)N(C(C)OC(=O)N3CCN(C)CC3)C1=O)C2 (stereo partly shown) [Compound 71] | – | 5.00
38 | CCOP(=O)(OCC)OCN1C(=O)N[C@@](CN2Cc3ccc(OC)c(F)c3C2=O)(c2cc3nc(N4CCN(CC)CC4)ccc3o2)C1=O [Compound 73] | – | 6.59
39 | COc1ccc2c(c1)C(=O)N(C[C@@]1(c3cc4cnccc4o3)NC(=O)N(COP(=O)(O)O)C1=O)C2 [Compound 74.1] | – | 6.14
40 | COc1ccc2c(c1)C(=O)N(C[C@@]1(c3cc4cnccc4o3)NC(=O)N(COP(=O)(OCc3ccccc3)OCc3ccccc3)C1=O)C2 [Compound 74] | – | 5.50
41 | COc1ccc2c(c1F)C(=O)N(C[C@@]1(c3cc4cc5c(c(F)c4o3)C(=O)NC5)NC(=O)N(C3OC(=O)c4ccccc43)C1=O)C2 (stereo partly shown) [Compound 75] | 0.189 | –
42 | COc1ccc2c(c1)C(=O)N(C[C@@]1(c3cc4cnccc4o3)NC(=O)N(C(=O)OC3COCOC3)C1=O)C2 [Compound 77] | 0 | –
43 | COc1ccc2c(c1)C(=O)N(C[C@]1(c3cc4ncccc4o3)C(=O)N(C(C)OC(C)=O)C(=O)N1C(C)=O)C2 (stereo partly shown) [Compound 78] | – | 5.67
44 | COc1ccc2c(c1)C(=O)N(C[C@]1(c3cc4ncccc4o3)C(=O)N(COC(=O)C(C)(C)C)C(=O)N1COC(=O)C(C)(C)C)C2 [Compound 80] | 3.092 | –
45 | COc1ccc2c(c1F)C(=O)N(C[C@]1(c3cc4nc(C(N)=O)ccc4o3)C(=O)N(COC(=O)C(C)(C)C)C(=O)N1COC(=O)C(C)(C)C)C2 [Compound 81] | – | 6.80
46 | CCCC(=O)OCN1C(=O)N(C(=O)CCC)[C@@](CN2Cc3ccc(OC)cc3C2=O)(c2cc3cnccc3o2)C1=O [Compound 82] | 0.783 | –
47 | COc1ccc2c(c1)C(=O)N(C[C@]1(c3cc4cnccc4o3)C(=O)N(COC(=O)c3ccccc3)C(=O)N1C(=O)c1ccccc1)C2 [Compound 84] | 0.126 | –
48 | CCOc1ccc2c(c1F)C(=O)N(C[C@]1(c3cc4nc(N5CCN(CC)CC5)ccc4o3)C(=O)N(COC(=O)C(C)(C)C)C(=O)N1COC(=O)C(C)(C)C)C2 [Compound 85] | – | 6.42
49 | COc1ccc2c(c1)C(=O)N(C[C@]1(c3cc4cnccc4o3)C(=O)N(COC(=O)C3CCCCC3)C(=O)N1C(=O)C1CCCCC1)C2 [Compound 87] | 0 | –
50 | COc1ccc2c(c1)C(=O)N(C[C@]1(c3cc4cnccc4o3)C(=O)N(C(C)OC(=O)OC3COCOC3)C(=O)N1C(=O)OC1COCOC1)C2 (stereo partly shown) [Compound 88] | 0 | –
51 | CCOCCOC(=O)OCN1C(=O)N(C(=O)OCCOCC)[C@@](CN2Cc3ccc(OC)cc3C2=O)(c2cc3cnccc3o2)C1=O [Compound 89.1] | – | 5.50
52 | COc1ccc2c(c1)C(=O)N(C[C@]1(c3cc4cnccc4o3)C(=O)N(COC(=O)OCCN(C)C(=O)OCc3ccccc3)C(=O)N1C(=O)OCCN(C)C(=O)OCc1ccccc1)C2 [Compound 89] | – | 5.31
